Experimental data reported in paper PMC9120017, “Inhibition mechanism of the chloride channel TMEM16A by the pore blocker 1PBC” (Nature Communications, 2022).
Where two headings read alike, the source gives them in different places.

Target: T1, mouse TMEM16A mutant I512A (Mus musculus, UniProt Q8BHY3, I512A)
T1 construct: expressed in transfected cells; host or cells: HEK293T
T1 sequence (Q8BHY3 1-960 I512A): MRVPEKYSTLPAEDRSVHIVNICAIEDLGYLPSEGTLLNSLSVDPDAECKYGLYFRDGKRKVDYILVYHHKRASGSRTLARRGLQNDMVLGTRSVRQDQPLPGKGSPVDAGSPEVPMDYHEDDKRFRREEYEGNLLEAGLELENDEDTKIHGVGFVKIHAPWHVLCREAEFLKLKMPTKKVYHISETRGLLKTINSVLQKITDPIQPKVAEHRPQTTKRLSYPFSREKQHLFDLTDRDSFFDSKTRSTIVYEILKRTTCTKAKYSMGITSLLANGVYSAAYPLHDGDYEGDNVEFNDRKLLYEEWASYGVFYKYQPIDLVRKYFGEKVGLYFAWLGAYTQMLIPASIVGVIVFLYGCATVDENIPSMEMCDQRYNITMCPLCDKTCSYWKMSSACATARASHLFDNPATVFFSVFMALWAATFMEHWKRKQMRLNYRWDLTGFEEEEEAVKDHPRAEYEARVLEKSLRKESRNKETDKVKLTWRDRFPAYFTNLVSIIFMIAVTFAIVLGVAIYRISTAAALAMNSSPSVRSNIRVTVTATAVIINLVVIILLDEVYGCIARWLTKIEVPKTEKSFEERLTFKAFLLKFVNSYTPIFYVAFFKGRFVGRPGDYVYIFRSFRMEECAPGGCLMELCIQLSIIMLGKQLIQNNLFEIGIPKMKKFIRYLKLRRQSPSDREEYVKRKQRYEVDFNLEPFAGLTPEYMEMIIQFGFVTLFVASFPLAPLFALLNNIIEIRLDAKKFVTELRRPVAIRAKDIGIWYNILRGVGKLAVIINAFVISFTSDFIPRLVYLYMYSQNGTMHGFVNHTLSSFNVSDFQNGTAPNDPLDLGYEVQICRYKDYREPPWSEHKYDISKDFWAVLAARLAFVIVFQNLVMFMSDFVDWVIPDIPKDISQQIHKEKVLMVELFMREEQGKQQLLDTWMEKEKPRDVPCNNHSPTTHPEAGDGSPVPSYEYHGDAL
Experiment: Inside-out patch recording of 1PBC block, mutant I512A
Format: cell-based
Conditions: for remaining activity at 100 µM: 100 µM 1PBC
Description: HEK293T cells (ATCC CRL-1573) were maintained in Dulbecco’s modified Eagle’s medium (DMEM; Sigma-Aldrich) supplemented with 10 U ml^−1 penicillin, 0.1 mg ml^−1 streptomycin (Sigma-Aldrich), 2 mM L-glutamine (Sigma-Aldrich), and 10% FBS (Sigma-Aldrich) in a humidified atmosphere containing 5% CO2 at 37 °C. HEK293S GnTI^− cells (ATCC CRL-3022) were maintained in HyClone HyCell TransFx-H medium (GE Healthcare) supplemented with 10 U ml^−1 penicillin, 0.1 mg ml^−1 streptomycin, 4 mM L-glutamine, 0.15% poloxamer 188 (Sigma-Aldrich), and 1% FBS in an atmosphere containing 5% CO2 at 185 rpm at 37 °C. The ac splice variant of mouse TMEM16A (UniProt ID: Q8BHY3), mouse TMEM16B (UniProt ID: Q8CFW1), or mouse TMEM16F (UniProt ID: Q6P9J9) bearing a 3C cleavage site, a Venus YFP, a Myc tag, and a Streptavidin-binding peptide (SBP) downstream of the open reading frame in a modified pcDNA3.1 vector (Invitrogen) were used as described previously[21],[31]. Mutations were introduced using a modified QuikChange method[58] and were verified by sequencing.
HEK293T cells were transfected with 3–4 μg DNA per 6 cm Petri dish using the calcium phosphate co-precipitation method and were used within 24–96 h after transfection. Recordings were performed on inside-out patches excised from HEK293T cells expressing the construct of interest. Patch pipettes were pulled from borosilicate glass capillaries (O.D. 1.5 mm, I.D. 0.86 mm, Sutter Instrument) and were fire-polished with a microforge (Narishige) before use. Pipette resistance was typically 3–8 MΩ when filled with the recording solutions detailed below. Seal resistance was typically 4 GΩ or higher. Voltage-clamp recordings were made using Axopatch 200B, Digidata 1550, and Clampex 10.7 (Molecular Devices). Analog signals were filtered with the in-built 4-pole Bessel filter at 10 kHz and were digitized at 20 kHz. Solution exchange was achieved using a gravity-fed system through a theta glass pipette mounted on an ultra-fast piezo-driven stepper (Siskiyou). […] All recordings were performed at 20 °C.
A symmetrical ionic condition was used throughout. Stock solution with Ca^2+-EGTA contained 150 mM NaCl, 5.99 mM Ca(OH)2, 5 mM EGTA, and 10 mM HEPES at pH 7.40. Stock solution with EGTA contained 150 mM NaCl, 5 mM EGTA, and 10 mM HEPES at pH 7.40. Free Ca^2+ concentrations were adjusted by mixing the stock solutions at the required ratios calculated using the WEBMAXC program (http://web.stanford.edu/~cpatton/webmaxcS.htm). Patch pipettes were filled with the stock solution with Ca^2+-EGTA, which has a free Ca^2+ concentration of 1 mM. 1PBC (ChemBridge) stock was reconstituted in anhydrous DMSO (Sigma-Aldrich) at 100 mM and stored at −20 °C. Working solutions with 1PBC were prepared by serial dilution. Unless otherwise stated, experiments were performed at a saturating Ca^2+ concentration as shown in Supplementary Table 1 and the primary data were corrected for current rundown as described previously[21],[25].
Concentration-response relations, obtained from the ratio of the I-V plots before and after the application of the blocker, were fitted to the Hill equation,1 I/Imax=1/1+IC50/[blocker]^h where I/Imax is the normalized current responses, IC50 defines the concentration at which inhibition is at its half-maximum, and h is the Hill coefficient.

IC50 (0 mV, 2 µM Ca2+): 30.7 µM
remaining activity at 3 µM (3 µM 1PBC, +80 mV, saturating Ca2+ (2 µM), read-out: I/Imax): 84.4%
remaining activity at 3 µM (3 µM 1PBC, -80 mV, saturating Ca2+ (2 µM), read-out: I/Imax): 94.5%
remaining activity at 10 µM (10 µM 1PBC, +80 mV, saturating Ca2+ (2 µM), read-out: I/Imax): 63.3%
remaining activity at 10 µM (10 µM 1PBC, -80 mV, saturating Ca2+ (2 µM), read-out: I/Imax): 87.2%
remaining activity at 30 µM (30 µM 1PBC, +80 mV, saturating Ca2+ (2 µM), read-out: I/Imax): 36.4%
remaining activity at 30 µM (30 µM 1PBC, -80 mV, saturating Ca2+ (2 µM), read-out: I/Imax): 65.6%
remaining activity at 100 µM (+80 mV, saturating Ca2+ (2 µM), read-out: I/Imax): 14%
remaining activity at 100 µM (-80 mV, saturating Ca2+ (2 µM), read-out: I/Imax): 36%
remaining activity at 3 µM (1PBC 3, 0 mV, read-out: fraction of unblocked current): 89.8%
remaining activity at 3 µM (1PBC 3, 20 mV, read-out: fraction of unblocked current): 88.3%
remaining activity at 3 µM (1PBC 3, 40 mV, read-out: fraction of unblocked current): 86.4%
remaining activity at 3 µM (1PBC 3, 60 mV, read-out: fraction of unblocked current): 85.9%
remaining activity at 3 µM (1PBC 3, 80 mV, read-out: fraction of unblocked current): 84.4%
remaining activity at 3 µM (1PBC 3, 100 mV, read-out: fraction of unblocked current): 83.9%
remaining activity at 3 µM (1PBC 3, 120 mV, read-out: fraction of unblocked current): 84.8%
remaining activity at 3 µM (1PBC 3, 140 mV, read-out: fraction of unblocked current): 86.4%
remaining activity at 3 µM (1PBC 3, -20 mV, read-out: fraction of unblocked current): 91.3%
remaining activity at 3 µM (1PBC 3, -40 mV, read-out: fraction of unblocked current): 92.6%
remaining activity at 3 µM (1PBC 3, -60 mV, read-out: fraction of unblocked current): 93.3%
remaining activity at 3 µM (1PBC 3, -80 mV, read-out: fraction of unblocked current): 94.5%
remaining activity at 3 µM (1PBC 3, -100 mV, read-out: fraction of unblocked current): 94.8%
remaining activity at 3 µM (1PBC 3, -120 mV, read-out: fraction of unblocked current): 95.1%
remaining activity at 3 µM (1PBC 3, -140 mV, read-out: fraction of unblocked current): 96%
remaining activity at 10 µM (1PBC 10, 0 mV, read-out: fraction of unblocked current): 76.6%
remaining activity at 10 µM (1PBC 10, 20 mV, read-out: fraction of unblocked current): 72.7%
remaining activity at 10 µM (1PBC 10, 40 mV, read-out: fraction of unblocked current): 68.9%
remaining activity at 10 µM (1PBC 10, 60 mV, read-out: fraction of unblocked current): 65.9%
remaining activity at 10 µM (1PBC 10, 80 mV, read-out: fraction of unblocked current): 63.3%
remaining activity at 10 µM (1PBC 10, 100 mV, read-out: fraction of unblocked current): 61.7%
remaining activity at 10 µM (1PBC 10, 120 mV, read-out: fraction of unblocked current): 61.7%
remaining activity at 10 µM (1PBC 10, 140 mV, read-out: fraction of unblocked current): 63.1%
remaining activity at 10 µM (1PBC 10, -20 mV, read-out: fraction of unblocked current): 80.4%
remaining activity at 10 µM (1PBC 10, -40 mV, read-out: fraction of unblocked current): 82.9%
remaining activity at 10 µM (1PBC 10, -60 mV, read-out: fraction of unblocked current): 85.2%
remaining activity at 10 µM (1PBC 10, -80 mV, read-out: fraction of unblocked current): 87.2%
remaining activity at 10 µM (1PBC 10, -100 mV, read-out: fraction of unblocked current): 88.6%
remaining activity at 10 µM (1PBC 10, -120 mV, read-out: fraction of unblocked current): 89%
remaining activity at 10 µM (1PBC 10, -140 mV, read-out: fraction of unblocked current): 89.6%
remaining activity at 30 µM (1PBC 30, 0 mV, read-out: fraction of unblocked current): 50.3%
remaining activity at 30 µM (1PBC 30, 20 mV, read-out: fraction of unblocked current): 46.3%
remaining activity at 30 µM (1PBC 30, 40 mV, read-out: fraction of unblocked current): 42.2%
remaining activity at 30 µM (1PBC 30, 60 mV, read-out: fraction of unblocked current): 39%
remaining activity at 30 µM (1PBC 30, 80 mV, read-out: fraction of unblocked current): 36.4%
remaining activity at 30 µM (1PBC 30, 100 mV, read-out: fraction of unblocked current): 34.7%
remaining activity at 30 µM (1PBC 30, 120 mV, read-out: fraction of unblocked current): 34.2%
remaining activity at 30 µM (1PBC 30, 140 mV, read-out: fraction of unblocked current): 35.1%
remaining activity at 30 µM (1PBC 30, -20 mV, read-out: fraction of unblocked current): 54.2%
remaining activity at 30 µM (1PBC 30, -40 mV, read-out: fraction of unblocked current): 58.4%
SMILES: N#Cc1c(C(F)(F)F)cc(O)n2c1nc1ccccc12 [1PBC]
